{
  "source": "ChEMBL document CHEMBL5465560",
  "about": "“Selectivity Literature for EUbOPEN Chemogenomic Library” (2024)",
  "key": {"[1]": {"molecular_target": "Rho-associated protein kinase 1 (Homo sapiens) (UniProt Q13464)", "sequence (Q13464 2-1354 limits assumed)": "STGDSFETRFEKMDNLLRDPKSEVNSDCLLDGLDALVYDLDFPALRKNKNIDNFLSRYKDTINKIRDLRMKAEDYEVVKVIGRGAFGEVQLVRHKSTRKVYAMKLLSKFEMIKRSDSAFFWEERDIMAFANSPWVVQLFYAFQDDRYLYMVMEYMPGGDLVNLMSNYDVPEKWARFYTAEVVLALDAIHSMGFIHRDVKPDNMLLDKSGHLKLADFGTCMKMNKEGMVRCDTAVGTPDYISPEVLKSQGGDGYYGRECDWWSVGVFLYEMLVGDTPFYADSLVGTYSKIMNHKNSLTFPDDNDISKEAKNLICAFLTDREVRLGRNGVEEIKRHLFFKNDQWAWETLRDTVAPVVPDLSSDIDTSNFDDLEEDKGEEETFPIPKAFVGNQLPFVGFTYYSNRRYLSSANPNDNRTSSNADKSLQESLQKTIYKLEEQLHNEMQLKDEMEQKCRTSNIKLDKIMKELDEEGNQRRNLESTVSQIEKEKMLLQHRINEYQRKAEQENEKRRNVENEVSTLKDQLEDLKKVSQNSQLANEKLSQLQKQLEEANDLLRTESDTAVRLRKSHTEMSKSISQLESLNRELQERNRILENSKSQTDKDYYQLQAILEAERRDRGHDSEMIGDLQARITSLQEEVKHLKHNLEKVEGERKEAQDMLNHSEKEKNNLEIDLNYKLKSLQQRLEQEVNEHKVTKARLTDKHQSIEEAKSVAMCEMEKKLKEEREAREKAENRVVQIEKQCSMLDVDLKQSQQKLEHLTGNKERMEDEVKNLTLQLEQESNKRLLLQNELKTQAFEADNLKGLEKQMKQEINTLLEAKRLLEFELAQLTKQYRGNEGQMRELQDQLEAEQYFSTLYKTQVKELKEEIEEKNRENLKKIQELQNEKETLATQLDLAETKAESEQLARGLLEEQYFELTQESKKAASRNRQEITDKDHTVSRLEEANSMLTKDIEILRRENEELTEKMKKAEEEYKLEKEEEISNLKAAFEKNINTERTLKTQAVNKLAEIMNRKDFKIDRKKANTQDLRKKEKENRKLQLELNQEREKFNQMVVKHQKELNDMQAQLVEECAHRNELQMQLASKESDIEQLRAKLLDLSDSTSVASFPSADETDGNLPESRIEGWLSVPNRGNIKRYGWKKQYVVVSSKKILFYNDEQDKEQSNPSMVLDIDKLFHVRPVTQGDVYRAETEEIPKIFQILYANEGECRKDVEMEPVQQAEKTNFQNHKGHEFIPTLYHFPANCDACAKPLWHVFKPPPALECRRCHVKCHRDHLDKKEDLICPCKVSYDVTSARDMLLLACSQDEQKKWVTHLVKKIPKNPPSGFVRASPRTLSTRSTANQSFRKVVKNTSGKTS", "assay": "Selectivity interaction (KinomeScan (DiscoverX)) EUB0000229b ROCK1", "settings": "at 10 µM"}, "[2]": {"molecular_target": "Mitogen-activated protein kinase kinase kinase 20 (Homo sapiens) (UniProt Q9NYL2)", "sequence (Q9NYL2 2-800 limits assumed)": "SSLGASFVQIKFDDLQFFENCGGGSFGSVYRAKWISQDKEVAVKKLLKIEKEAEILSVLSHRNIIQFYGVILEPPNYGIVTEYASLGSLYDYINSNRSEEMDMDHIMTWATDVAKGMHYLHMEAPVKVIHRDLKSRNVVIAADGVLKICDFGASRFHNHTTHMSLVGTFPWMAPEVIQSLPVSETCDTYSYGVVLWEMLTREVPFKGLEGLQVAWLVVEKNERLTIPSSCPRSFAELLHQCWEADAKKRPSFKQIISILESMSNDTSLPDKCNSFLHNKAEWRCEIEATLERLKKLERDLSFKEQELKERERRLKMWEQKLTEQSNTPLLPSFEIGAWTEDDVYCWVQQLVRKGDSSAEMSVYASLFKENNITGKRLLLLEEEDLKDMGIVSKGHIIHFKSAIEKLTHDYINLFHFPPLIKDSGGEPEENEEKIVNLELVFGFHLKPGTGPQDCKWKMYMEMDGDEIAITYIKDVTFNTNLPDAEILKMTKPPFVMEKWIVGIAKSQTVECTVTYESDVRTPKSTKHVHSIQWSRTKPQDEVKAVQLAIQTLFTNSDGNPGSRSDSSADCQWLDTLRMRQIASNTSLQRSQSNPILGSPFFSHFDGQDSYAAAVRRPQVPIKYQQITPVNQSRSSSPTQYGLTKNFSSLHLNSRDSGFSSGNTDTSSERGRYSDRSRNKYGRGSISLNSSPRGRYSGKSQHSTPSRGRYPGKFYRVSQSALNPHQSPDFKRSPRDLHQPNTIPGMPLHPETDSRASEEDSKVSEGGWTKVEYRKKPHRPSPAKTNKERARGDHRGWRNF", "assay": "Selectivity interaction (KinomeScan (DiscoverX)) EUB0000229b MAP3K20", "settings": "at 10 µM"}, "[3]": {"molecular_target": "T1, Serine/threonine-protein kinase MAK (Homo sapiens) (UniProt P20794)", "T1 sequence (whole entry)": "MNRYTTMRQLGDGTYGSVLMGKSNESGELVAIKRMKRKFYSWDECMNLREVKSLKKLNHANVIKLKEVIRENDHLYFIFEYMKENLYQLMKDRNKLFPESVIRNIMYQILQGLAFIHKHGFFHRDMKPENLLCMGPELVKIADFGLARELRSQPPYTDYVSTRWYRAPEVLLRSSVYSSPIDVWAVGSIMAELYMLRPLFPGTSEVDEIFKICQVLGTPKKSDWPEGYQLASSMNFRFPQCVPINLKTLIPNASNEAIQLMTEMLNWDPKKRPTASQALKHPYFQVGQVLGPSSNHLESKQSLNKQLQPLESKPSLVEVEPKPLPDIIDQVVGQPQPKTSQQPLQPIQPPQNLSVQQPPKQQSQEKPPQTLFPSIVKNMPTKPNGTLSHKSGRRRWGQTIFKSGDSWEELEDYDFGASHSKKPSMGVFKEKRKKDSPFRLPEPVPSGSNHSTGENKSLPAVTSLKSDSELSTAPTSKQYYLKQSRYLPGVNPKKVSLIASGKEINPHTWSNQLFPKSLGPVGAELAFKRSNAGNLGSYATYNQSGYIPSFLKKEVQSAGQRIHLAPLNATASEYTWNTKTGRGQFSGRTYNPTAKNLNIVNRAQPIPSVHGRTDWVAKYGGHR", "assay": "Selectivity interaction (KinomeScan (DiscoverX)) EUB0000229b MAK", "settings": "at 10 µM"}, "[4]": {"molecular_target": "Tyrosine-protein kinase Fes/Fps (Homo sapiens) (UniProt P07332)", "sequence (P07332 whole entry)": "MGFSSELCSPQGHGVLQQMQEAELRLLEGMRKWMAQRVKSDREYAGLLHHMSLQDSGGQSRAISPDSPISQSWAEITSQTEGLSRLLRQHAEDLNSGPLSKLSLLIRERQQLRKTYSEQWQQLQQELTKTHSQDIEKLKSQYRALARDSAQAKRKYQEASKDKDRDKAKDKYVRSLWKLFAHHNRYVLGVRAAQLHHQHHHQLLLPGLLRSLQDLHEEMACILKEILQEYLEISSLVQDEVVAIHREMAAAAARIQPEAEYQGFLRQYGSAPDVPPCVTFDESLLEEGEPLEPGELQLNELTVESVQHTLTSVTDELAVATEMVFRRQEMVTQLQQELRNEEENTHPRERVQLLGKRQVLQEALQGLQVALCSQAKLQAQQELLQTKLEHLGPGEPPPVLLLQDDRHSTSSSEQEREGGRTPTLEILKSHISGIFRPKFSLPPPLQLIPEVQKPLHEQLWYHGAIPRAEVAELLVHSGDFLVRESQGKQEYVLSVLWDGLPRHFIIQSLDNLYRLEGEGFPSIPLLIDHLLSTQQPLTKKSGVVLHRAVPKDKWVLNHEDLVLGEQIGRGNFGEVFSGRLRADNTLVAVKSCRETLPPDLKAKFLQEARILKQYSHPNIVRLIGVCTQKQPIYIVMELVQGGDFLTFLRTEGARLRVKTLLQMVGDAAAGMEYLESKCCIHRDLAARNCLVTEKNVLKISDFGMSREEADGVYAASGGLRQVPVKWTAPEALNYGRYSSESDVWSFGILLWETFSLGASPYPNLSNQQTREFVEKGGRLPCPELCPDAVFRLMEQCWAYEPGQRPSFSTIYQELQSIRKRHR", "assay": "Selectivity interaction (KinomeScan (DiscoverX)) EUB0000092b FES", "settings": "at 10 µM"}, "[5]": {"molecular_target": "Dual specificity mitogen-activated protein kinase kinase 2 (Homo sapiens) (UniProt P36507)", "sequence (P36507 whole entry)": "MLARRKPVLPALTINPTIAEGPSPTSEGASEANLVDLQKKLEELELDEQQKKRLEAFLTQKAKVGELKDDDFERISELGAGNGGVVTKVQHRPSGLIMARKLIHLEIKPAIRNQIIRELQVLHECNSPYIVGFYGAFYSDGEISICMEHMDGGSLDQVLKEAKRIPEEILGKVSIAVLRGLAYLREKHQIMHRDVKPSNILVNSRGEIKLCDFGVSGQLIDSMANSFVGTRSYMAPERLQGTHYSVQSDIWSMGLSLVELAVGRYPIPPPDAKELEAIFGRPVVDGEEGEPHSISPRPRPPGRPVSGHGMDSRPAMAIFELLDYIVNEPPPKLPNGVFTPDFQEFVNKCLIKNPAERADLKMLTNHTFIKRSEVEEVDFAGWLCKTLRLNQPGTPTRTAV", "assay": "Selectivity interaction (KinomeScan (DiscoverX)) EUB0000666a MAP2K2", "settings": "at 10 µM"}, "[6]": {"molecular_target": "TGF-beta receptor type-2 (Homo sapiens) (UniProt P37173)", "settings": "at 10 µM"}, "[7]": {"test_system": "Epidermal growth factor receptor (Homo sapiens), P00533 [UNDEFINED MUTATION]", "assay": "Selectivity interaction (KinomeScan (DiscoverX)) EUB0001049a EGFR", "settings": "at 1 µM"}, "[8]": {"molecular_target": "T2, Serine/threonine-protein kinase LATS2 (Homo sapiens) (UniProt Q9NRM7)", "T2 sequence (whole entry)": "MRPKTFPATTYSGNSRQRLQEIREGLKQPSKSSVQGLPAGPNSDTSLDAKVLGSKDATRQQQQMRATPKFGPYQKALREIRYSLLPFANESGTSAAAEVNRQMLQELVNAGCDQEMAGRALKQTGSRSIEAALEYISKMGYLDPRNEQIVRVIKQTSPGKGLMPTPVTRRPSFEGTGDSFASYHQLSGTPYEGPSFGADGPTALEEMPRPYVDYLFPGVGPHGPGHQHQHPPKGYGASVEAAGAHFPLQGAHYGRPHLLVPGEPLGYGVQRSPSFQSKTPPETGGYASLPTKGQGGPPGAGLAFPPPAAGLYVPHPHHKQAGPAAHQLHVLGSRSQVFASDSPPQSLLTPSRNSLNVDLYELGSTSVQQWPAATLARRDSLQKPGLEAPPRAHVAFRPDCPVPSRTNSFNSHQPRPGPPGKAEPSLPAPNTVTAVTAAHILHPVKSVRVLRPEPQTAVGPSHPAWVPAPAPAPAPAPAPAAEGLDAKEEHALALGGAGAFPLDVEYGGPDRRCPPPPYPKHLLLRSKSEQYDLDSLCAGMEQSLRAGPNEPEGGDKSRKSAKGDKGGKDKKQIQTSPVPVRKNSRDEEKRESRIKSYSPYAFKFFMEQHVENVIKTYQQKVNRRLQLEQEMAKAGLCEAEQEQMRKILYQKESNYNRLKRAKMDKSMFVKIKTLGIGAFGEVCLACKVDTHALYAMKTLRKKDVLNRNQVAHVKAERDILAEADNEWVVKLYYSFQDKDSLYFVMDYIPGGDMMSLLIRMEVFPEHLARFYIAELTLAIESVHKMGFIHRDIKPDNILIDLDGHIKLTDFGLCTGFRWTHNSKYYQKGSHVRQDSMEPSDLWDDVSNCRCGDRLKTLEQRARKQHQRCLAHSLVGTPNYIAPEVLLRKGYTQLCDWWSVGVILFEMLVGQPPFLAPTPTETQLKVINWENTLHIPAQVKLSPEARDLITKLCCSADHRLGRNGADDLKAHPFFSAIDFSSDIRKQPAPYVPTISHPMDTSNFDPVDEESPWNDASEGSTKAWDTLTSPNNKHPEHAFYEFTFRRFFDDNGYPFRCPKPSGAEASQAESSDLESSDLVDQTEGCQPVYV", "assay": "Selectivity interaction (KinomeScan (DiscoverX)) EUB0000695a LATS2", "settings": "at 100 nM"}, "[9]": {"molecular_target": "Mitogen-activated protein kinase kinase kinase 1 (Homo sapiens, UniProt Q13233)", "sequence (Q13233 whole entry)": "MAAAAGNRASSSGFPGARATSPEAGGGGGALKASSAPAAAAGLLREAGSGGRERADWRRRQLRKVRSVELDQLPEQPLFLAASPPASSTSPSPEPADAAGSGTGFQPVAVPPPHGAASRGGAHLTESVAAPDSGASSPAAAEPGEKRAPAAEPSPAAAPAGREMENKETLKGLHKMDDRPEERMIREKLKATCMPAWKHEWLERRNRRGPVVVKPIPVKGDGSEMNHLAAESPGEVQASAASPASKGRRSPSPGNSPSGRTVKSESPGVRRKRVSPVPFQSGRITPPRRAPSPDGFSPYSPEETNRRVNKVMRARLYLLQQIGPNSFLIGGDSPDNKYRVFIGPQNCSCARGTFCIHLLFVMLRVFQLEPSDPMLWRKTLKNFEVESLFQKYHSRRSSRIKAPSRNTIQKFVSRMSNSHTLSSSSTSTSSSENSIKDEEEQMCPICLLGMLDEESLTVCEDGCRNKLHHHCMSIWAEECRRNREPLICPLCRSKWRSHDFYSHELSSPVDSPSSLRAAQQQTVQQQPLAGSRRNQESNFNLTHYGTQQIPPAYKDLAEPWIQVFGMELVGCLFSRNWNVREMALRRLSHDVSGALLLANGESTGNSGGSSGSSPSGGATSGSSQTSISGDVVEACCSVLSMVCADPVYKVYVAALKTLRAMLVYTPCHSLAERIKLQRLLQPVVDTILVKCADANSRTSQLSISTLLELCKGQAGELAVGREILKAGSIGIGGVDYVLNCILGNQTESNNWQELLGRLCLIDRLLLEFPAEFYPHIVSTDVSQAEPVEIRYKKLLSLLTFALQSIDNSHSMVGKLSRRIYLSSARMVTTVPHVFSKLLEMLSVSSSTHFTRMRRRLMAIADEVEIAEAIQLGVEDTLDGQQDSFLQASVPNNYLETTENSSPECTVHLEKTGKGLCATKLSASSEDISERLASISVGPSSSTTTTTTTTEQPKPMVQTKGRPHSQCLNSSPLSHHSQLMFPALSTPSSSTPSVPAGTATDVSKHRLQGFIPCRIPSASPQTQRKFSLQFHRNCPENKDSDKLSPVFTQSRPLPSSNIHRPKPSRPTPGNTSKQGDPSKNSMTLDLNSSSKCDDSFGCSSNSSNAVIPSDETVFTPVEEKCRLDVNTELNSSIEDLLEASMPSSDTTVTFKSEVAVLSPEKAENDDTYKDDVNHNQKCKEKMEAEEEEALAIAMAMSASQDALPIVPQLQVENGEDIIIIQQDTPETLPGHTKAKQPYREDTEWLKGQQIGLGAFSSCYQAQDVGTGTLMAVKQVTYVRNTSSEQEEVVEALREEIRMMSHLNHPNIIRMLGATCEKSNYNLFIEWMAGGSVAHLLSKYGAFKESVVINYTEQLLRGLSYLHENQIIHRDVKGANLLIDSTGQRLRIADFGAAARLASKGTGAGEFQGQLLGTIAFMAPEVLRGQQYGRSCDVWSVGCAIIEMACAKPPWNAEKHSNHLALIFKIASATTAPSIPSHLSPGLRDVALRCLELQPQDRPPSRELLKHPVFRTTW", "assay": "Selectivity interaction (KinomeScan (DiscoverX)) EUB0000045b MAP3K1"}, "[10]": {"molecular_target": "Protein kinase C delta type (Homo sapiens) (UniProt Q05655)", "assay": "Selectivity interaction (KinomeScan (DiscoverX)) EUB0001619a PRKCD", "settings": "at 1 µM"}, "[11]": {"molecular_target": "Tyrosine-protein kinase Fes/Fps (Homo sapiens) (UniProt P07332)", "assay": "Selectivity interaction (ActivX KiNativ screen (ex vivo kinase selectivity in human PBMCs)) EUB0001619a FES", "type": "cell-based", "settings": "PBMC, at 1 µM"}},
  "data": [
    {"smiles": "COc1cc(N(C)c2ccnc3ccc(C(F)(F)F)cc23)cc(OC)c1OC", "values": [
      {"measurement": "% binding", "setting": "[1]", "result": 78, "unit": "%"},
      {"measurement": "% binding", "setting": "[2]", "result": 91, "unit": "%"},
      {"measurement": "% binding", "setting": "[3]", "result": 79, "unit": "%"}
    ]},
    {"smiles": "CCC(=O)N1CCN(c2ccc(-n3c(=O)ccc4cnc5ccc(-c6cnc7ccccc7c6)cc5c43)cc2C(F)(F)F)CC1", "values": [
      {"measurement": "% of control", "setting": "[4]", "result": 41, "unit": "%"}
    ]},
    {"smiles": "O=C(NOC[C@H](O)CO)c1ccc(F)c(F)c1Nc1ccc(I)cc1F", "values": [
      {"measurement": "% of control", "setting": "[5]", "result": 0.2, "unit": "%"}
    ]},
    {"smiles": "Cc1cc([C@@H](C)Nc2ccccc2C(=O)O)c2nc(N3CCOCC3)cc(=O)n2c1", "note": "[AZD-6482]", "values": [
      {"measurement": "% of control", "setting": "[6]", "result": 95, "unit": "%"}
    ]},
    {"smiles": "COc1cc(Nc2nc(C)cc(-c3cnn4nc(OC)ccc34)n2)cc(C(F)(F)F)c1", "values": [
      {"measurement": "% of control", "setting": "[7]", "result": 77, "unit": "%"}
    ]},
    {"smiles": "Cc1cc(F)c(C(=O)Nc2cccc(-c3nncn3C(C)C)n2)cc1-n1cnc(C2CC2)c1", "values": [
      {"measurement": "% of control", "setting": "[8]", "result": 89, "unit": "%"}
    ]},
    {"smiles": "C=CC(=O)Nc1cc(-n2c(=O)ccc3cnc4ccc(-c5ccc(NS(C)(=O)=O)cc5)cc4c32)ccc1C", "values": [
      {"measurement": "% of control", "setting": "[9]; at 1 µM", "result": 100, "unit": "%"},
      {"measurement": "% of control", "setting": "[9]; at 10 µM", "result": 100, "unit": "%"}
    ]},
    {"smiles": "N#Cc1cccc(-c2c[nH]c3ncnc(N4CCOCC4)c23)c1", "values": [
      {"measurement": "% of control", "setting": "[10]", "result": 67, "unit": "%"},
      {"measurement": "% of inhibition", "setting": "[11]", "result": 7, "unit": "%"}
    ]}
  ]
}
